± gives the expanded uncertainty stated by the source.
Settings: Liquid, Buoyancy - hydrostatic balance with magnetic suspension - one sinker

CCCCCCC [heptane]
Settings	mass density [kg/m3]
233.15 K, 101.68 kPa	733.289 ± 0.2
233.15 K, 1104.1 kPa	733.918 ± 0.2
233.15 K, 2003.3 kPa	734.481 ± 0.2
233.15 K, 4006 kPa	735.714 ± 0.2
233.15 K, 6004.8 kPa	736.928 ± 0.2
233.15 K, 8009.5 kPa	738.125 ± 0.2
233.15 K, 9956.8 kPa	739.277 ± 0.2
233.15 K, 11864 kPa	740.377 ± 0.2
233.15 K, 13984 kPa	741.588 ± 0.2
233.15 K, 15995 kPa	742.722 ± 0.2
233.15 K, 17888 kPa	743.774 ± 0.2
233.15 K, 20074 kPa	744.977 ± 0.2
233.15 K, 22024 kPa	746.029 ± 0.2
233.15 K, 24018 kPa	747.094 ± 0.2
233.15 K, 25954 kPa	748.113 ± 0.2
233.15 K, 27944 kPa	749.147 ± 0.2
233.15 K, 29979 kPa	750.192 ± 0.2
253.15 K, 98.99 kPa	717.086 ± 0.19
253.15 K, 1101.5 kPa	717.807 ± 0.19
253.15 K, 2000.5 kPa	718.446 ± 0.19
253.15 K, 4006.3 kPa	719.85 ± 0.19
253.15 K, 6005.4 kPa	721.223 ± 0.19
253.15 K, 8147.8 kPa	722.669 ± 0.19
253.15 K, 10096 kPa	723.959 ± 0.19
253.15 K, 11827 kPa	725.088 ± 0.19
253.15 K, 13955 kPa	726.459 ± 0.19
253.15 K, 16060 kPa	727.785 ± 0.19
253.15 K, 18040 kPa	729.014 ± 0.19
253.15 K, 20020 kPa	730.22 ± 0.19
253.15 K, 22093 kPa	731.465 ± 0.19
253.15 K, 23828 kPa	732.495 ± 0.19
253.15 K, 25891 kPa	733.701 ± 0.2
253.15 K, 27739 kPa	734.762 ± 0.2
253.15 K, 29900 kPa	735.987 ± 0.2
273.15 K, 102.15 kPa	700.687 ± 0.18
273.15 K, 1101.3 kPa	701.507 ± 0.18
273.15 K, 2006.3 kPa	702.244 ± 0.18
273.15 K, 4005.4 kPa	703.841 ± 0.19
273.15 K, 6005.5 kPa	705.403 ± 0.19
273.15 K, 8197.5 kPa	707.077 ± 0.19
273.15 K, 10109 kPa	708.507 ± 0.19
273.15 K, 12114 kPa	709.976 ± 0.19
273.15 K, 14092 kPa	711.403 ± 0.19
273.15 K, 16116 kPa	712.831 ± 0.19
273.15 K, 18076 kPa	714.19 ± 0.19
273.15 K, 20096 kPa	715.565 ± 0.19
273.15 K, 22069 kPa	716.883 ± 0.19
273.15 K, 24102 kPa	718.226 ± 0.19
273.15 K, 25918 kPa	719.397 ± 0.19
273.15 K, 27991 kPa	720.718 ± 0.19
273.15 K, 29444 kPa	721.633 ± 0.19
293.15 K, 98.89 kPa	683.986 ± 0.18
293.15 K, 1104.3 kPa	684.937 ± 0.18
293.15 K, 2003.3 kPa	685.779 ± 0.18
293.15 K, 4003 kPa	687.611 ± 0.18
293.15 K, 6003.7 kPa	689.394 ± 0.18
293.15 K, 8007.4 kPa	691.14 ± 0.18
293.15 K, 10028 kPa	692.854 ± 0.18
293.15 K, 12139 kPa	694.603 ± 0.18
293.15 K, 14008 kPa	696.118 ± 0.18
293.15 K, 16160 kPa	697.827 ± 0.18
293.15 K, 18149 kPa	699.368 ± 0.18
293.15 K, 19992 kPa	700.756 ± 0.18
293.15 K, 22123 kPa	702.362 ± 0.18
293.15 K, 24036 kPa	703.766 ± 0.19
293.15 K, 25999 kPa	705.175 ± 0.19
293.15 K, 27983 kPa	706.576 ± 0.19
293.15 K, 29986 kPa	707.965 ± 0.19
313.15 K, 101.45 kPa	666.898 ± 0.17
313.15 K, 1102.2 kPa	667.995 ± 0.17
313.15 K, 2005.5 kPa	668.973 ± 0.17
313.15 K, 4004.5 kPa	671.086 ± 0.18
313.15 K, 6106.9 kPa	673.238 ± 0.18
313.15 K, 7941.2 kPa	675.062 ± 0.18
313.15 K, 9944.4 kPa	676.997 ± 0.18
313.15 K, 11841 kPa	678.793 ± 0.18
313.15 K, 13782 kPa	680.575 ± 0.18
313.15 K, 16032 kPa	682.588 ± 0.18
313.15 K, 17876 kPa	684.2 ± 0.18
313.15 K, 19748 kPa	685.804 ± 0.18
313.15 K, 21803 kPa	687.518 ± 0.18
313.15 K, 23829 kPa	689.172 ± 0.18
313.15 K, 25814 kPa	690.765 ± 0.18
313.15 K, 27801 kPa	692.324 ± 0.18
313.15 K, 29818 kPa	693.872 ± 0.18
333.15 K, 103 kPa	649.298 ± 0.17
333.15 K, 1106 kPa	650.588 ± 0.17
333.15 K, 2004.1 kPa	651.723 ± 0.17
333.15 K, 4003.6 kPa	654.18 ± 0.17
333.15 K, 6004.6 kPa	656.549 ± 0.17
333.15 K, 8005.6 kPa	658.837 ± 0.17
333.15 K, 9901.5 kPa	660.933 ± 0.17
333.15 K, 12083 kPa	663.274 ± 0.17
333.15 K, 14040 kPa	665.309 ± 0.17
333.15 K, 16005 kPa	667.293 ± 0.17
333.15 K, 17854 kPa	669.109 ± 0.17
333.15 K, 19985 kPa	671.149 ± 0.18
333.15 K, 21967 kPa	672.997 ± 0.18
333.15 K, 23926 kPa	674.778 ± 0.18
333.15 K, 25823 kPa	676.467 ± 0.18
333.15 K, 27823 kPa	678.205 ± 0.18
333.15 K, 30009 kPa	680.058 ± 0.18
353.15 K, 99.37 kPa	631.037 ± 0.16
353.15 K, 1182.8 kPa	632.68 ± 0.17
353.15 K, 2156.3 kPa	634.131 ± 0.17
353.15 K, 4140.7 kPa	636.982 ± 0.17
353.15 K, 6175.6 kPa	639.78 ± 0.17
353.15 K, 8138.9 kPa	642.37 ± 0.17
353.15 K, 10095 kPa	644.851 ± 0.17
353.15 K, 12083 kPa	647.284 ± 0.17
353.15 K, 14040 kPa	649.596 ± 0.17
353.15 K, 16039 kPa	651.883 ± 0.17
353.15 K, 18008 kPa	654.064 ± 0.17
353.15 K, 19996 kPa	656.201 ± 0.17
353.15 K, 21956 kPa	658.247 ± 0.17
353.15 K, 23925 kPa	660.247 ± 0.17
353.15 K, 25887 kPa	662.188 ± 0.17
353.15 K, 27855 kPa	664.084 ± 0.17
353.15 K, 29976 kPa	666.077 ± 0.17
373.15 K, 1164.3 kPa	613.877 ± 0.16
373.15 K, 2149.2 kPa	615.631 ± 0.16
373.15 K, 4123.5 kPa	618.999 ± 0.16
373.15 K, 5987 kPa	622.014 ± 0.16
373.15 K, 8094.8 kPa	625.262 ± 0.16
373.15 K, 10060 kPa	628.151 ± 0.16
373.15 K, 12066 kPa	630.972 ± 0.16
373.15 K, 14018 kPa	633.61 ± 0.17
373.15 K, 16044 kPa	636.241 ± 0.17
373.15 K, 18058 kPa	638.765 ± 0.17
373.15 K, 19976 kPa	641.085 ± 0.17
373.15 K, 21960 kPa	643.408 ± 0.17
373.15 K, 23948 kPa	645.665 ± 0.17
373.15 K, 25805 kPa	647.712 ± 0.17
373.15 K, 27898 kPa	649.952 ± 0.17
373.15 K, 29819 kPa	651.952 ± 0.17
393.15 K, 1101.9 kPa	593.952 ± 0.15
393.15 K, 2001.5 kPa	595.905 ± 0.15
393.15 K, 4002.8 kPa	600.027 ± 0.15
393.15 K, 6004.3 kPa	603.884 ± 0.16
393.15 K, 8005.5 kPa	607.511 ± 0.16
393.15 K, 10007 kPa	610.942 ± 0.16
393.15 K, 12111 kPa	614.361 ± 0.16
393.15 K, 14116 kPa	617.466 ± 0.16
393.15 K, 16097 kPa	620.399 ± 0.16
393.15 K, 18029 kPa	623.142 ± 0.16
393.15 K, 20054 kPa	625.904 ± 0.16
393.15 K, 22016 kPa	628.483 ± 0.16
393.15 K, 24006 kPa	631.008 ± 0.16
393.15 K, 25986 kPa	633.434 ± 0.17
393.15 K, 27952 kPa	635.769 ± 0.17
393.15 K, 29843 kPa	638.037 ± 0.17
